Assay results from publication PMC5888952 (Toxicological Sciences, 2018).

Columns and labels:
[1] = tested on: cryopreserved primary human hepatocytes (PHH) in 2Dsw culture; assay: Repeated-dose cytotoxicity
[2] = tested on: cryopreserved primary human hepatocytes (PHH) in 3D spheroid culture; assay: Repeated-dose cytotoxicity; format: cell-based
[3] = after long-term exposure, chosen treatment regimen

For `COc1ccccc1Oc1c(NS(=O)(=O)c2ccc(C(C)(C)C)cc2)nc(-c2ncccn2)nc1OCCO` [bosentan], the “sensitivity of PHH in 2Dsw compared with 3D spheroids” value ([1]; after 7 days (3 treatments)) was “higher” and the “sensitivity of PHH in 2Dsw compared with 3D spheroids” value ([1]; at 14 days (6 treatments)) was “equal sensitivity”.

For `O=C(O)Cc1ccccc1Nc1c(Cl)cccc1Cl` [diclofenac], the “sensitivity of PHH in 2Dsw compared with 3D spheroids” value [1, 3] was “substantially lower sensitivities”.

In the case of `O=c1[nH]c(=O)n([C@@H]2O[C@H](CO)[C@@H](O)[C@@H]2F)cc1I` [fialuridine], the “EC50 (50% reduction in viability, ATP)” value ([1]; 2Dsw culture, any of the 3 PHH donors, up to 14 days repeated exposure) is reported as “could not be attained” and the “sensitivity of PHH in 2Dsw compared with 3D spheroids” value [1, 3] is reported as “substantially lower sensitivities”.

For `CCc1ccc(CCOc2ccc(CC3SC(=O)NC3=O)cc2)nc1` (stereo not shown) [pioglitazone], the “toxicity (ATP viability)” value ([2]; 3D spheroid culture, up to 14 days) was “non-toxic” and the “toxicity (ATP viability)” value ([1]; 2Dsw culture, up to 14 days) was “non-toxic”.

For `Cc1c(C)c2c(c(C)c1O)CCC(C)(COc1ccc(CC3SC(=O)NC3=O)cc1)O2` (stereo not shown) [troglitazone], the “donors in which toxicity was identified at relevant concentrations” value ([2]; 3D spheroids, after 72 hours (single treatment), 3 donors tested) was “all 3 donors”, the “donors in which toxicity was indicated” value ([1]; 2Dsw culture, 3 donors tested) was 1 of the 3 donors and the “sensitivity of PHH in 2Dsw compared with 3D spheroids” value [1, 3] was “substantially lower sensitivities”.
